Data published in the supplement of paper PMC10307832.

Tests used:
Test in all cases: relative viability (nuclei count vs DMSO), 5 days (fraction); higher = more cells survive
[1] = compound: O=C(O)c1ccc2c(c1)nc(Nc1cccc(Cl)c1)c1ccncc12 [Silmitasertib] + Cc1nc(Nc2ncc(C(=O)Nc3c(C)cccc3Cl)s2)cc(N2CCN(CCO)CC2)n1 [Dasatinib] (partner 0.075 µM)
Summary of the method: (§1)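 Lung cancer cell lines were seeded in 1536-well plates and dosed by pin tool the next day, with either a single drug or a fixed anchor-drug dose combined with five library-drug doses (not always all listed) spaced in √10 steps. Five days later, one step fixed the cells and stained their nuclei (final 0.05% Triton X-100, 1% formaldehyde, 1 ug/ml Hoechst), and nuclei were counted on 4× images. Relative viability is the nuclei count in treated wells divided by the count in vehicle wells, and each value is the median of duplicate plates.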

[2] = compound: O=C(O)c1ccc2c(c1)nc(Nc1cccc(Cl)c1)c1ccncc12 [Silmitasertib] + COc1cc2c(Oc3ccc(NC(=O)C4(C(=O)Nc5ccc(F)cc5)CC4)cc3F)ccnc2cc1OCCCN1CCOCC1 [Foretinib] (partner 0.25 µM)
Summary of the method: as §1

[3] = compound: O=C(O)c1ccc2c(c1)nc(Nc1cccc(Cl)c1)c1ccncc12 [Silmitasertib] + Cc1cc(Nc2cc(N3CCN(C)CC3)nc(Sc3ccc(NC(=O)C4CC4)cc3)n2)n[nH]1 [Tozasertib] (partner 0.1 µM)
Summary of the method: as §1

[4] = compound: O=C(O)c1ccc2c(c1)nc(Nc1cccc(Cl)c1)c1ccncc12 [Silmitasertib] + CC1(C)CCC(c2ccc(Cl)cc2)=C(CN2CCN(c3ccc(C(=O)NS(=O)(=O)c4ccc(N[C@H](CCN5CCOCC5)CSc5ccccc5)c(S(=O)(=O)C(F)(F)F)c4)cc3)CC2)C1 [Navitoclax] (partner 0.5 µM)
Summary of the method: as §1

[5] = compound: O=C(O)c1ccc2c(c1)nc(Nc1cccc(Cl)c1)c1ccncc12 [Silmitasertib] + Nc1ncn([C@H]2C[C@H](O)[C@@H](CO)O2)c(=O)n1 [Decitabine] (partner 2 µM)
Summary of the method: as §1

Row | Cell Line | relative viability ([1]; first compound 0.04 µM) | relative viability ([1]; first compound 1.265 µM) | relative viability ([1]; first compound 4 µM) | relative viability ([2]; first compound 0.04 µM) | relative viability ([2]; first compound 1.265 µM) | relative viability ([2]; first compound 4 µM) | relative viability ([3]; first compound 0.04 µM) | relative viability ([3]; first compound 1.265 µM) | relative viability ([3]; first compound 4 µM) | relative viability ([4]; first compound 0.04 µM) | relative viability ([4]; first compound 1.265 µM) | relative viability ([4]; first compound 4 µM) | relative viability ([5]; first compound 0.04 µM) | relative viability ([5]; first compound 1.265 µM) | relative viability ([5]; first compound 4 µM) | relative viability ([2]; first compound 0.4 µM) | relative viability ([4]; first compound 0.4 µM) | relative viability ([1]; first compound 0.4 µM) | relative viability ([3]; first compound 0.4 µM) | relative viability ([5]; first compound 0.4 µM)
1 | HCC-827 | 0.342 | 0.259 | 0.274 | 1.09 | 1.06 | 1.2 | 0.454 | 0.398 | 0.471 | 1.11 | 1.09 | 1.19 | 0.313 | 0.153 | 0.292 | – | – | – | – | –
2 | HOP-62 | 0.683 | 0.639 | 0.567 | 1.1 | 1.18 | 1.14 | 0.4 | 0.341 | 0.296 | 0.996 | 0.961 | 0.849 | 0.24 | 0.203 | 0.211 | – | – | – | – | –
3 | IA-LM | – | – | – | 1.1 | 1.14 | 0.716 | – | – | – | 1.08 | 0.968 | 0.623 | – | – | – | 0.886 | 0.665 | – | – | –
4 | LC-2-ad | 0.915 | 0.384 | 0.276 | 1.14 | 0.898 | 0.827 | 0.537 | 0.388 | 0.374 | 0.462 | 0.392 | 0.261 | 0.836 | 0.689 | 0.665 | 0.891 | 0.383 | 0.482 | 0.411 | 0.794
5 | LCLC-97TM1 | 0.976 | 0.916 | 0.767 | 0.905 | 0.809 | 0.861 | 0.247 | 0.168 | 0.162 | 0.504 | 0.484 | 0.279 | 0.236 | 0.209 | 0.251 | – | – | – | – | –
6 | LCLC-103H | 0.449 | 0.419 | 0.279 | 0.828 | 0.632 | 0.625 | 0.522 | 0.356 | 0.289 | – | – | – | 0.791 | 0.616 | 0.556 | 0.74 | – | 0.414 | 0.341 | 0.655
7 | LK-2 | 0.328 | 0.309 | 0.321 | 1.07 | 1.08 | 0.818 | 0.165 | 0.169 | 0.19 | 0.854 | 0.732 | 0.576 | 0.312 | 0.194 | 0.21 | – | 0.696 | – | – | –
8 | LOU-NH91 | 0.585 | 0.46 | 0.383 | 0.948 | 0.859 | 0.827 | 0.689 | 0.441 | 0.484 | 0.852 | 0.549 | 0.464 | 0.876 | 0.754 | 0.782 | 0.786 | 0.596 | 0.475 | 0.539 | 0.801
9 | LU99A | 0.478 | 0.369 | 0.434 | 0.823 | 0.844 | 0.738 | 0.316 | 0.263 | 0.256 | 0.911 | 0.622 | 0.546 | 0.824 | 0.808 | 0.605 | 0.833 | 0.735 | 0.46 | 0.29 | 0.837
10 | LXF-289 | 0.181 | 0.346 | 0.363 | 0.983 | 1.04 | 1.05 | 0.212 | 0.186 | 0.182 | 0.917 | 1.01 | 1 | 0.41 | 0.377 | 0.405 | – | – | – | – | –
11 | NCI-H23 | 0.793 | 0.652 | 0.581 | 0.97 | 0.65 | 0.735 | 0.427 | 0.223 | 0.188 | 0.957 | 0.732 | 0.728 | 0.353 | 0.255 | 0.245 | – | – | – | – | 0.256
12 | NCI-H358 | 0.176 | 0.14 | 0.155 | 0.876 | 0.653 | 0.474 | 0.121 | 0.115 | 0.083 | – | – | – | 0.22 | 0.199 | 0.199 | 0.573 | – | 0.312 | 0.0941 | 0.217
13 | NCI-H522 | 0.876 | 0.788 | 0.849 | – | – | – | 0.611 | 0.541 | 0.574 | – | – | – | 0.653 | 0.69 | 0.655 | – | – | 0.785 | 0.464 | 0.62
14 | NCI-H650 | 0.479 | 0.375 | 0.285 | 1.07 | 0.884 | 0.777 | 0.874 | 0.496 | 0.355 | – | – | – | 0.309 | 0.322 | 0.341 | 0.699 | – | 0.373 | 0.492 | 0.315
15 | NCI-H661 | 1.13 | 0.607 | 0.569 | 1.1 | 0.892 | 0.884 | 0.346 | 0.334 | 0.364 | – | – | – | 0.636 | 0.548 | 0.441 | 1.01 | – | 0.723 | 0.368 | 0.617
16 | NCI-H1563 | 0.493 | – | 0.431 | 0.96 | 0.879 | 0.974 | – | – | – | – | – | – | – | – | – | 0.952 | – | 0.486 | – | –
17 | NCI-H1703 | – | – | – | 0.348 | 0.359 | 0.415 | – | – | – | 1.44 | 1.15 | 0.807 | – | – | – | 0.375 | 1.01 | – | – | –
18 | NCI-H1792 | 0.869 | 0.824 | 0.921 | – | – | – | – | – | – | 0.651 | 0.573 | 0.414 | 0.6 | 0.529 | 0.515 | – | 0.512 | 0.806 | – | 0.492
19 | NCI-H2228 | 0.517 | 0.523 | 0.528 | 1 | 0.926 | 1.1 | 0.287 | 0.247 | 0.23 | 0.981 | 0.586 | 1.16 | – | – | – | – | 0.579 | – | – | –
20 | NCI-H2342 | 0.33 | 0.271 | 0.298 | 1.19 | 0.889 | 1.14 | 0.479 | 0.374 | 0.445 | – | – | – | 0.791 | 0.79 | 0.743 | 0.981 | – | 0.295 | 0.479 | –
21 | SW 900 | 0.82 | 0.614 | 0.398 | 1.05 | 0.817 | 0.424 | 0.649 | 0.38 | 0.349 | – | – | – | 0.499 | 0.377 | 0.347 | 0.477 | – | 0.316 | 0.413 | 0.422
